# From patent publication US20030068615A1, “Polypeptides that bind HIV gp120 and related nucleic acids, antibodies, compositions, and methods of use” (priority 1999, published 2003)
# “And” between values parts separate entries of the source, which are not always exact repeats. Equal values may be shown once. Read-outs that look alike come from different tables or passages of the source.
# Molecular target: HIV-1LAI envelope gp120 (Human immunodeficiency virus type 1 group M subtype B, UniProt P03377)
# Assay type: binding
# Conditions: for Relative % of Control: CXCR4 (1-18) alanine variants, mean of two syntheses and binding experiments ± average deviation, wild-type = 100%; for Counts per 20′ Average-background: CCR5 18-mer scan, radiolabeled HIV-1LAI gp120; for number of radioactive decays (counts) counted: human CD4 21-mer scan, empty control 2075
# [1] = CXCR4 18-mer scan, background subtracted, empty control 0
# [2] = CXCR4 18-mer scan, empty control 412
# [3] = Panel E, 9-mers and 12-mers of CD4, empty control 571
# [4] = Panel A, 21-mers of CD4, empty control 515 and 617
# [5] = Panel D, 9-mers and 12-mers of CD4, empty control […]
# [6] = Panel C, 15-mers and 18-mers of CD4, empty control 556
# [7] = Panel G, alanine replacements and serial truncations (Z) of CD4 polypeptides, empty control 580
# [8] = Panel B, 15-mers and 18-mers of CD4, empty control 575
# [9] = STRL33 18-mer scan, background subtracted, first of two count columns
# [10] = STRL33 18-mer scan, background subtracted, second of two count columns
# [11] = Panel F, sequential alanine replacements of CD4 polypeptides, duplicate series, empty control 569
sequence,measurement,setting,value
LTSVSRGSSLKILSKGKR,radioactive counts recorded in twenty minutes,[1],183 counts
same,radioactive counts recorded in twenty minutes,[2],595 counts
VVLAFQKAS,COUNTS of radiolabeled gp120 retained,[3],600 counts
FPLAFTVEKLTGSGELWWQAE,COUNTS of radiolabeled gp120 retained,[4],6276 counts
MEAISIYTSDNYTEEMGS,Relative % of Control,,101 ± 3%
YAAAQWDFGNTMCQLLTG [CCR5 segment 89-],Counts per 20′ Average-background,background subtracted,494 counts per 20′
EFKIDIVVL,COUNTS of radiolabeled gp120 retained,[3],665 counts
KIEDSDTYI,COUNTS of radiolabeled gp120 retained,[5],603 counts
AIVHATNSQRPRKLLAEK [CXCR4 segment 137-154],radioactive counts recorded in twenty minutes,[1],73 counts
same,radioactive counts recorded in twenty minutes,[2],485 counts
SFPLAFTVEKLTGSG,COUNTS of radiolabeled gp120 retained,[6],565 counts
MEGISIATSDNYTEEMGS,Relative % of Control,,7 ± 0.4%
GEQVEFSFPLAF,COUNTS of radiolabeled gp120 retained,[3],1729 counts
GEQVEASFPLAFTVE,COUNTS of radiolabeled gp120 retained,[7],6793 counts and 6533 counts
NFPLIIKNL,COUNTS of radiolabeled gp120 retained,[5],561 counts
KEEVQLLVFGLTANSDTH,COUNTS of radiolabeled gp120 retained,[8],1271 counts
SFHYTIMVTEAIAYLRAC [STRL33 segment 265-282],radioactive counts recorded in twenty minutes,[9],761.5 counts
same,radioactive counts recorded in twenty minutes,[10],1033.5 counts
ASSIVYKKEGEQ,COUNTS of radiolabeled gp120 retained,[3],523 counts
ALAFFHCCLNPILYAFLG [CXCR4 segment 289-306],radioactive counts recorded in twenty minutes,[1],181 counts
same,radioactive counts recorded in twenty minutes,[2],593 counts
EDSDTYICEVEDQKE,COUNTS of radiolabeled gp120 retained,[8],815 counts
VYKKEGEQVEFS,COUNTS of radiolabeled gp120 retained,[3],584 counts
THLLQAQSLTLTLES,COUNTS of radiolabeled gp120 retained,[11],8471 counts and 6393 counts
IFTRSQKEGLHYTCSSHF,Counts per 20′ Average-background,background subtracted,98 counts per 20′
SDTHLLQGQSLTLTL,COUNTS of radiolabeled gp120 retained,[8],747 counts
DTYICEVED,COUNTS of radiolabeled gp120 retained,[5],1043 counts
EFKIDIVVLAFQ,COUNTS of radiolabeled gp120 retained,[3],659 counts
LLSDSGQVLLESNIKVLPTWS [human CD4 371-391],number of radioactive decays (counts) counted,,2375 counts
FGLTANSDTHLLQGQSLT,COUNTS of radiolabeled gp120 retained,[8],591 counts
AFTVEKLTG,COUNTS of radiolabeled gp120 retained,[3],517 counts
YICEVEDQKEEVQLLVFG,COUNTS of radiolabeled gp120 retained,[8],4611 counts
LLGIYTINFYTSMLILTC,radioactive counts recorded in twenty minutes,[9],499.5 counts
same,radioactive counts recorded in twenty minutes,[10],408.5 counts
GLVILVMGYQKKLRSMTD [CXCR4 segment 57-74],radioactive counts recorded in twenty minutes,[1],157 counts
same,radioactive counts recorded in twenty minutes,[2],569 counts
SDTHLLQGQSLTLTLESP,COUNTS of radiolabeled gp120 retained,[8],1260 counts
GLTANSDTHLLQ,COUNTS of radiolabeled gp120 retained,[5],574 counts
FLTGIVGNGLVILVMGYQ [CXCR4 segment 49-66],radioactive counts recorded in twenty minutes,[1],246 counts
same,radioactive counts recorded in twenty minutes,[2],658 counts
LQNQKKVEF,COUNTS of radiolabeled gp120 retained,[3],565 counts
NSIYLVISIFYHKLQSLT [STRL33 segment 49-66],radioactive counts recorded in twenty minutes,[9],1255.5 counts
same,radioactive counts recorded in twenty minutes,[10],1378.5 counts
VMRATQLQKNLTCEVWGPTSP [human CD4 316-336],number of radioactive decays (counts) counted,,2144 counts
TVTFGVVTSVITWVVAVF,Counts per 20′ Average-background,background subtracted,−25 counts per 20′
YKKEGEQVEFSFPLAFTV,COUNTS of radiolabeled gp120 retained,[6],4839 counts
SSIVYKKEGEQVEFS,COUNTS of radiolabeled gp120 retained,[6],558 counts
VSEADDRYICDRFYPNDL [CXCR4 segment 177-194],radioactive counts recorded in twenty minutes,[1],157 counts
same,radioactive counts recorded in twenty minutes,[2],569 counts
FKIDIVVLA,COUNTS of radiolabeled gp120 retained,[3],568 counts
WITFDLKNKEVSVKRVTQDPK,number of radioactive decays (counts) counted,,2126 counts
THLLQGQALTLTLES,COUNTS of radiolabeled gp120 retained,[11],8659 counts and 5151 counts
QKEEVQLLVFGLTANSDT,COUNTS of radiolabeled gp120 retained,[8],3671 counts
HFPYSQYQFWKNFQTLKI,Counts per 20′ Average-background,background subtracted,1008 counts per 20′
QLLVFGLTANSDTHLLQG,COUNTS of radiolabeled gp120 retained,[8],574 counts
VEDQKEEVQLLVFGLTAN,COUNTS of radiolabeled gp120 retained,[8],3913 counts
GEQVEFSFPLAFAVE,COUNTS of radiolabeled gp120 retained,[7],20627 counts and 19516 counts
LTDVFLVNLPLADLVFVC [STRL33 segment 65-82],radioactive counts recorded in twenty minutes,[9],233.5 counts
same,radioactive counts recorded in twenty minutes,[10],336.5 counts
FWAVDAVANWYFGNFLCK [CXCR4 segment 93-110],radioactive counts recorded in twenty minutes,[1],66 counts
same,radioactive counts recorded in twenty minutes,[2],478 counts
WDQGNFPLIIKNLKIEDS,COUNTS of radiolabeled gp120 retained,[8],626 counts
IVYKKEGEQVEFSFPLAFTVE,COUNTS of radiolabeled gp120 retained,[4],15620 counts
LEAKTGKLHQEVNLVVMRATQ [human CD4 301-321],number of radioactive decays (counts) counted,,1729 counts
AFTVEKLTGSGELWW,COUNTS of radiolabeled gp120 retained,[6],586 counts
EEVQLAVFGLTANSD,COUNTS of radiolabeled gp120 retained,[11],11954 counts and 13690 counts
GEQVEFSFP,COUNTS of radiolabeled gp120 retained,[3],697 counts
WTCTVLQNQKKVEFKIDI,COUNTS of radiolabeled gp120 retained,[6],588 counts
IVVVKATKAYNQQAKRMT,radioactive counts recorded in twenty minutes,[9],166.5 counts
same,radioactive counts recorded in twenty minutes,[10],43.5 counts
IVVLAFQKA,COUNTS of radiolabeled gp120 retained,[3],602 counts
DQKEEVQLLVFGLTANSD,COUNTS of radiolabeled gp120 retained,[8],3317 counts
GNTMCQLLTGLYFIGFFS [CCR5 segment 97-],Counts per 20′ Average-background,background subtracted,941 counts per 20′
KNLKIEDSDTYICEVEDQ,COUNTS of radiolabeled gp120 retained,[8],708 counts
CTVLQNQKKVEFKIDIVV,COUNTS of radiolabeled gp120 retained,[6],553 counts
LWDQGNFPLIIKNLK,COUNTS of radiolabeled gp120 retained,[8],502 counts
LQNQKKVEFKIDIVVLAF,COUNTS of radiolabeled gp120 retained,[6],938 counts
IVVLAFQKASSIVYK,COUNTS of radiolabeled gp120 retained,[6],783 counts
EEVQLLAFGLTANSD,COUNTS of radiolabeled gp120 retained,[11],13317 counts and 16286 counts
DSDTYICEVEDQKEEVQL,COUNTS of radiolabeled gp120 retained,[8],961 counts
QKEEVQLLV,COUNTS of radiolabeled gp120 retained,[5],636 counts
MTWGKVTSLLIWVISLLV,radioactive counts recorded in twenty minutes,[9],−0.5 counts
same,radioactive counts recorded in twenty minutes,[10],−26.5 counts
SDTYICEVEDQKEEV,COUNTS of radiolabeled gp120 retained,[8],993 counts
VEFSFPLAFTVEKLTGSG,COUNTS of radiolabeled gp120 retained,[6],533 counts
THLLQGQSLTLTLES,COUNTS of radiolabeled gp120 retained,[8],1874 counts
same,COUNTS of radiolabeled gp120 retained,[11],7756 counts and 6545 counts and 4787 counts and 5947 counts
same,COUNTS of radiolabeled gp120 retained,[7],10850 counts and 9756 counts
THLLQGQSL,COUNTS of radiolabeled gp120 retained,[5],512 counts
ILPGIVILSCYCIIISKL [CXCR4 segment 209-226],radioactive counts recorded in twenty minutes,[1],192 counts
same,radioactive counts recorded in twenty minutes,[2],604 counts
LMKFIRSTHWEYYAMTSF [STRL33 segment 249-266],radioactive counts recorded in twenty minutes,[9],934.5 counts
same,radioactive counts recorded in twenty minutes,[10],949.5 counts
